According to paper PMC7567501 (Journal of Enzyme Inhibition and Medicinal Chemistry, 2019):

Tests used:
Aβ1-42 = target: T1, Aβ1-42 (Homo sapiens, UniProt P05067); assay: TEM imaging of Aβ aggregation inhibition; settings: compound 50 μM, 37 °C, 24 h, pH 6.6
T1 construct: Amyloid β-peptide (1–42), Aβ1-42, was purchased from GeneCust; purchased GeneCust
Experimental: Nevertheless, since quantitative analysis based on fluorescence of copper(II) containing solutions may result in somehow erroneous conclusions due to some potential emission quenching by this paramagnetic ion, a fluorescence-independent study by transmission electron microscopy (TEM) was also performed for compound 21. […] Overall, TEM confirms the role of the ligand in the inhibition of Aβ aggregation.
Figure 6. TEM images of Aβ aggregation inhibition performed with samples incubated (37 °C) for 24 h. Experimental conditions: [Aβ1–42] = [CuCl2] = 25 μM; [21] = 50 μM; pH = 6.6.
For the study of the β-amyloid (Aβ) aggregation, the ThT fluorescence assay was performed using a Varian Cary Eclipse fluorimeter at the following wavelengths: excitation (446 nm) and emission (485 nm). Amyloid β-peptide (1–42), Aβ1-42, was purchased from GeneCust as a lyophilised powder stored at −20 °C. TEM assays were performed with a Hitachi H8100 transmission electron microscope with a LaB6 filament (200 kV, 10000–20000 × magnification) at MicroLab/IST.
The Transmission Electron Microscopy (TEM) is a high resolution technique used to study biological or inorganic samples at 2–3 nm level, through black and white high-quality images. The compound 21 was selected among those with better anti-Aβ aggregation assay. […]

SH-SY5Y cells [1] = assay: Neuroprotection against ascorbate/iron (Asc/Fe) toxicity, MTT reduction assay; type: cell-based, human; settings: Asc/Fe 5 mM/500 μM 24 h after 1 h compound; 18, 19, 20, 23 at 20 µM; 21, 24 at 35 µM
Experimental: Figure 9. Neuroprotective effect of TAC-BF conjugates against L-Ascorbic Acid (AscH(-))/Ferrous Sulphate (Fe) toxicity on SH-SY5Y cells. Cells were treated with Asc/Fe (5 mM/500 μM, respectively) for 24 h, after treatment for 1 h in the absence or in the presence of the compounds. Evaluation of cell viability was performed by using MTT reduction assay. […] (compounds: 18, 19, 20 and 23 – 20 µM; 21, 24 – 35 µM).
(§1) SH-SY5Y human neuroblastoma cell line (ATCC-CRL-2266) is grown in Dulbecco’s modified Eagle’s medium (DMEM), and were obtained from Gibco-Invitrogen (Life Technologies Ltd, UK) with 10% heat inactivated foetal calf serum, containing 50 U/mL penicillin and 50 µg/mL streptomycin, under a humidified atmosphere of 95% air- 5% CO2 at 37 °C. Cells were plated at 0.12 × 10^6 cells/mL for cell viability assay. The tested compounds (18, 19, 20, 21, 23 and 24) were dissolved in DMSO at a concentration of 50 mM and aliquots were stored at −20 °C. We performed a dose-response screening (from 10 µM to 40 µM) in order to choose the highest non-toxic concentration. […]
(§2) Cell viability was determined by the MTT (3–(4,5-dimethylthiazol-2-yl)-2,5-diphenyltetrazolium bromide) reduction test. […] The absorbance was measured at 570 nm[51]. Cell reduction ability was expressed as a percentage of untreated control cells.

SH-SY5Y cells [2] = assay: Dose-response screening for non-toxic concentrations, MTT reduction assay; type: cell-based, human; settings: 10 µM to 40 µM, 25 h
Experimental: The neuroprotective effect of these new multi-target drugs designed for AD was evaluated using SH-SY5Y cells treated with Aβ1-42 peptides or ascorbate/iron. For each compound we performed a dose-response curve to select a non-toxic concentration (Figure 7).
Figure 7. Dose-response screening to select non-toxic concentrations of TAC-BF hybrids. Cells were treated with varying concentration of TAC-BF conjugates (from 10 μM to 40 μM) for 25 h and cell viability was determined using the MTT reduction assay.
SH-SY5Y human neuroblastoma cell line (ATCC-CRL-2266) is grown in Dulbecco’s modified Eagle’s medium (DMEM), and were obtained from Gibco-Invitrogen (Life Technologies Ltd, UK) with 10% heat inactivated foetal calf serum, containing 50 U/mL penicillin and 50 µg/mL streptomycin, under a humidified atmosphere of 95% air- 5% CO2 at 37 °C. Cells were plated at 0.12 × 10^6 cells/mL for cell viability assay. The tested compounds (18, 19, 20, 21, 23 and 24) were dissolved in DMSO at a concentration of 50 mM and aliquots were stored at −20 °C. We performed a dose-response screening (from 10 µM to 40 µM) in order to choose the highest non-toxic concentration. As a result we selected: 20 µM final concentrations for compounds 18, 19, 20 and 23; 20 µM final concentration for compound 19; 35 µM final concentration for compounds 21 and 24. […] The compounds were added to the cell media 1 h before the incubation with Aβ1-42 or L-ascorbic acid/ferrous sulphate. Aβ1-42 or L-ascorbic acid/ferrous sulphate where incubated alone or with the compound for an additional 24 h. Aβ1-42 was prepared as 276.9 µM stock in sterile water and added to the medium at 2.5 µM final concentration. Ferrous sulphate was freshly prepared as 0.36 M stock in water and added to the medium at 500 µM final concentration. L-Ascorbic Acid was freshly prepared as 80 mM stock in water and added to the medium at 5 mM final concentration. Aβ1-42 was purchased from Bachem (Torrance, CA, USA) and ferrous sulphate and L-ascorbic acid from Sigma Chemical Co (St. Louis, MO, USA).
Cell viability was determined by the MTT (3–(4,5-dimethylthiazol-2-yl)-2,5-diphenyltetrazolium bromide) reduction test. In viable cells, the enzyme succinate dehydrogenase metabolises MTT into a formazan that absorbs light at 570 nm. Following the cell treatment protocol, the medium was aspirated and 0.5 mL MTT (0.5 mg/mL) was added to each well. The plate was then incubated at 37 °C for 1 h 30 min protected from light. At the end of the incubation period, the formazan precipitates were solubilised with 0.5 mL of acidic isopropanol (0.04 M HCl/isopropanol). The absorbance was measured at 570 nm[51]. Cell reduction ability was expressed as a percentage of untreated control cells.

SH-SY5Y cells [3] = assay: Neuroprotection from Aβ42-induced toxicity, MTT reduction assay; type: cell-based, human; settings: Aβ42 2.5 μM 24 h; 1 h pre-incubation + 24 h co-incubation; 18, 19, 20, 23 at 20 µM; 21, 24 at 35 µM
Experimental: Figure 8. Neuroprotective effect of TAC-BF hybrids from Aβ42-induced toxicity on SH-SY5Y cells. Cells were treated with Aβ42 peptide (2.5 μM) for 24 h in the absence or in the presence of the compounds (1 h pre-incubation + 24 h co-incubation). Evaluation of cell viability was performed using the MTT reduction assay. […] (compounds: 18, 19, 20 and 23 – 20 µM; 21, 24 – 35 µM).
as §1, §2

T1 sequence (P05067 672-713 limits assumed): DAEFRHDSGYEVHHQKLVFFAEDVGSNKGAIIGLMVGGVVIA

Compound | TEM morphology of Aβ42 aggregates, self-induced (Aβ1-42; [Aβ1–42] = 25 μM, no copper) | TEM morphology of Aβ42 aggregates in presence of copper (Aβ1-42; [Aβ1–42] = [CuCl2] = 25 μM) | Neuroprotective effect against Asc/Fe toxicity (cell viability) (SH-SY5Y cells [1]) | highest non-toxic concentration selected from dose-response screening (SH-SY5Y cells [2]) [µM] | Neuroprotective effect from Aβ42-induced toxicity (cell viability) (SH-SY5Y cells [3])
O=C(NCCCNc1c2c(nc3ccccc13)CCCC2)c1cc2cccc(O)c2o1 [Compound 21, 7-Hydroxy-N-(3-((1,2,3,4-tetrahydroacridin-9-yl)amino)propyl)benzofuran-2-carboxamide] | the aggregates became sparser and more elongated | formation of homogenous low molecular aggregates | lowest capacity for in cell radical scavenging | 35 | 
O=C(NCCCNc1c2c(nc3cc(Cl)ccc13)CCCC2)c1cc2cccc(O)c2o1 [Compound 23, N-(3-((6-chloro-1,2,3,4-tetrahydroacridin-9-yl)amino)propyl)-7-hydroxybenzofuran-2-carboxamide] |  |  |  | 20 | prevented that Aβ-induced cell toxicity
O=C(NCCCCNc1c2c(nc3cc(Cl)ccc13)CCCC2)c1cc2cccc(O)c2o1 [Compound 24, N-(4-((6-chloro-1,2,3,4-tetrahydroacridin-9-yl)amino)butyl)-7-hydroxybenzofuran-2-carboxamide] |  |  |  | 35 | 
COc1cccc2cc(C(=O)NCCCCNc3c4c(nc5cc(Cl)ccc35)CCCC4)oc12 [Compound 20, N-(4-((6-chloro-1,2,3,4-tetrahydroacridin-9-yl)amino)butyl)-7-methoxybenzofuran-2-carboxamide] |  |  |  | 20 | 
COc1cccc2cc(C(=O)NCCCNc3c4c(nc5cc(Cl)ccc35)CCCC4)oc12 [Compound 19, N-(3-((6-chloro-1,2,3,4-tetrahydroacridin-9-yl)amino)propyl)-7-methoxybenzofuran-2-carboxamide] |  |  | appeared to best achieve cell protection from Asc/Fe-induce oxidative stress | 20 | prevented that Aβ-induced cell toxicity
